Several values for one entry are separate records, joined by “and”; a condition that tells them apart may be missing. Equal entries are not always repeated. Structures can show the parent of a compound that is named as a salt. Where two headings read alike, the source gives them in different places.
Experiments:
[1] = molecular target: T1, human recombinant p38α protein kinase (Homo sapiens, UniProt Q16539); assay: Human p38α MAP kinase inhibition assay (cell-free, phosphorylation of myelin basic protein); format: biochemical
T1 construct: purchased UBI 14-251; host or cells: E. coli
T1 sequence (Q16539 whole entry): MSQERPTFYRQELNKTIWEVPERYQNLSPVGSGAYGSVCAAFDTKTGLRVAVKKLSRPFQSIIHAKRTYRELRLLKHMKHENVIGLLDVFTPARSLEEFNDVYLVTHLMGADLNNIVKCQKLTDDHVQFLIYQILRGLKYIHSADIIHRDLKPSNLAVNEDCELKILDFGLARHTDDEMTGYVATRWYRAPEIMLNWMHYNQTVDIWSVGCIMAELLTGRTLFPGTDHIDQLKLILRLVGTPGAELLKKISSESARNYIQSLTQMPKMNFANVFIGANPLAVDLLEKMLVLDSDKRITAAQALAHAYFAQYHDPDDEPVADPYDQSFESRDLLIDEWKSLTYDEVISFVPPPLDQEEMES
Description: In vitro cell-free p38α MAP kinase inhibition assays were conducted by the method as described in Clerk et al., FEBS Lett., 426:93-96 (1998) for a number of lactones in formulas I/IIa/IIb. Briefly, human recombinant p38α protein kinase expressed in E. coli (UBI #14-251) was used. Myelin basic protein (MBP, UBI #13-110) was employed as substrate, and microtiter plate wells were coated with MBP (0.01 mg/ml) overnight at 4° C. Candidate compound and/or vehicle was preincubated with 0.075 μg/mL enzyme in modified HEPES buffer pH 7.4 at 25° C. for 15 minutes. The reaction was initiated by addition of 100 μM ATP and allowed to proceed for another 60 minutes. The reaction was terminated by aspirating the solution. Phosphorylated MBP was detected by incubation with a mouse monoclonal IgG2a anti-phosphoMBP antibody. Bound anti-phosphoMBP antibody was quantitated by incubation with a HRP conjugated goat anti-mouse IgG.

[2] = system: oxazolone-induced mouse ear swelling; assay: Model for inhibition of topical inflammation (oxazolone-induced mouse ear swelling); format: in vivo, BALB/c male mice; conditions: for % Inh. of oxazolone-induced mouse ear swelling: topical, ear thickness 24 hours after challenge
Description: Left ears were untreated. The thickness of both ears of each animal was measured with a Dyer model micrometer gauge 24 hours after oxazolone challenge, and the net increase in thickness of right ears versus left ears was calculated for each animal. Percent inhibition was calculated according to the formula: [(Iv−It)/Iv]×100, where Iv and It respectively refer to the average net increase in right ear thickness (mm) for vehicle and candidate compound treated mice.

[3] = system: LPS-induced TNF-α release from human peripheral blood mononuclear cells; assay: Whole cell LPS-stimulated TNF-α release assay; format: cell-based
Description: The procedure as described in Welker et al., Int. Arch. Allergy and Immunol. 109:110-115 (1996) can be followed. Briefly, a candidate compound and/or vehicle can be preincubated with human peripheral blood mononuclear leukocytes (PBML, 5×10^5/ml) cells in AIM-V medium pH 7.4 for 2 hours. Lipopolysaccharide (LPS, 25 ng/ml) can be added to stimulate the cells, which can be incubated overnight at 37° C. TNF-α cytokine levels in the conditioned medium can then be quantitated using a sandwich ELISA kit.
(§1) Table III below summarizes the results of in vitro assays described above for HMG-CoA and/or MAP kinase inhibitory activity of specific pyrazole compounds.

[4] = molecular target: T2, rat liver HMG-CoA reductase (Rattus norvegicus, UniProt P51639); assay: Cell-free HMG-CoA reductase assay; format: biochemical; conditions: concentration required to inhibit rat liver HMG-CoA reductase by 50%; read-out: IC50 HMG-CoA R
T2 construct: from tissue; host or cells: rat liver (per the results' head)
T2 sequence (P51639 1-887): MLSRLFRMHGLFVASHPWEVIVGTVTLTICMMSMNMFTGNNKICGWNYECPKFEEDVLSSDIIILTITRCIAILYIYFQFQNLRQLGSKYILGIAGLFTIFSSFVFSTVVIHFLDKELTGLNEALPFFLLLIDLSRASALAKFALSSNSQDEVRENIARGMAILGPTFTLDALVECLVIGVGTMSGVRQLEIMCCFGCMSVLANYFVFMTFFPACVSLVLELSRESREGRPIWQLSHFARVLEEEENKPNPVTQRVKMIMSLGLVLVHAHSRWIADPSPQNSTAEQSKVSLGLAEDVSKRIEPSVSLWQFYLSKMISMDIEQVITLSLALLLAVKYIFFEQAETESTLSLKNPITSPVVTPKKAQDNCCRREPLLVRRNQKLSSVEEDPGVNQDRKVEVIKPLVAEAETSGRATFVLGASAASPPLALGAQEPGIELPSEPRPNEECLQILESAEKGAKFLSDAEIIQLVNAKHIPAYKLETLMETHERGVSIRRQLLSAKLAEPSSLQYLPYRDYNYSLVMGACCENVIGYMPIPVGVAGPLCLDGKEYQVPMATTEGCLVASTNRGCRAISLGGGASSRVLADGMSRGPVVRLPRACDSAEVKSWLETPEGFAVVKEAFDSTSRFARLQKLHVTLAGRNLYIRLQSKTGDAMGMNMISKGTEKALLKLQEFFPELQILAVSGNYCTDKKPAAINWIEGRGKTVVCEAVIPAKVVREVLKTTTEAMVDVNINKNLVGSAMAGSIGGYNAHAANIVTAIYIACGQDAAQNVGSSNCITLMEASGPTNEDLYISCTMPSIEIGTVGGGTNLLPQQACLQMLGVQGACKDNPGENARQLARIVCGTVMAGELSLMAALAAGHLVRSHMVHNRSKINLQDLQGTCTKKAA
Description: An example of a cell-free HMG-CoA reductase assay involves radiometric procedures described in Shum et al., Ther. Drug Monit. 20:41-49 (1998), incorporated herein by reference. Briefly, about 150 μg/mL of HMG-CoA reductase can be incubated with a candidate compound, together with about 12 μM [^14C]HMG-CoA and about 200 μM NADPH in about 200 μL 0.2M phosphate buffer (pH about 7.2) for about 0.5 h at about 37° C. The [^14C]mevalonate that forms can be converted under acidic conditions to [^14C]mevalonolactone and separated from un-reacted substrate, for example, by ion-exchange chromatography, and then quantified, for example, by liquid scintillation counting.
as §1

[5] = in vitro, human p38α MAP kinase, Table I, read-out: IC50 p38α
[6] = inhibition of phosphorylation of myelin basic protein by recombinant human p38α MAP kinase by 50%, Table III, read-out: IC50 p38α MAPK
[7] = Homo sapiens, PBMC; read-out: IC50 Whole cell
[8] = Homo sapiens, PBMC, read-out: IC50 Whole cell

CC(C)c1c(C(=O)Nc2ccccc2)c(-c2ccccc2)c(-c2ccc(F)cc2)n1CC[C@@H](O)C[C@@H](O)CC(=O)O [Atorvastatin calcium]
IC50 [1, 5]: > 100 µM

CC(C)c1c(C(=O)Nc2ccccc2)c(-c2ccccc2)c(-c2ccc(F)cc2)n1CC[C@@H]1C[C@@H](O)CC(=O)O1 [Atorvastatin lactone]
IC50 [1, 5]: ~20 µM and 20 µM
anti-inflammatory activity in ear swelling model, comparison in words ([2]; observations on Table II): most potent anti-inflammatory activity in this assay
% Inh. of oxazolone-induced mouse ear swelling ([2]; dose 2 × 0.3 mg): 40%
% Inh. of oxazolone-induced mouse ear swelling ([2]; dose 2 × 0.3 mg, listed as atorvastatin lactone): 50% and 58% and 40%
% Inh. of oxazolone-induced mouse ear swelling ([2]; dose 2 × 1 mg): 58%
% Inh. of oxazolone-induced mouse ear swelling ([2]; dose 2 × 2 mg): 50%

CC(C)c1c(C(=O)Nc2ccccc2)c(-c2ccccc2)c(-c2ccc(F)cc2)n1CC[C@@H](O)C[C@@H](O)CC(=O)O [Atorvastatin sodium]
% Inh. of oxazolone-induced mouse ear swelling ([2]; dose 2 × 0.3 mg): 9%
% Inh. of oxazolone-induced mouse ear swelling ([2]; dose 2 × 1 mg): 31%
% Inh. of oxazolone-induced mouse ear swelling ([2]; dose 2 × 2 mg): 63%

CCC(C)c1nn(-c2ccnc(Nc3ccccc3)c2)c(-c2ccc(F)cc2)c1/C=C/[C@@H]1C[C@@H](O)CC(=O)O1 (some centres unmarked) [Example 10b]
IC50 [1, 6]: 6 µM
IC50 [3, 7]: 14 µM

O=C(O)C[C@H](O)C[C@H](O)/C=C/c1c(-c2ccccc2)nn(-c2ccnc(Nc3ccccc3)n2)c1-c1ccccc1 [Example 11a, (3R,5S,E)-7-(3,5-diphenyl-1-(2-(phenylamino)pyrimidin-4-yl)-1H-pyrazol-4-yl)-3,5-dihydroxyhept-6-enoic acid calcium salt]
IC50 [4]: 33 nM
IC50 [1, 6]: 11 µM
IC50 [3, 8]: 31 µM

O=C1C[C@H](O)C[C@@H](/C=C/c2c(-c3ccccc3)nn(-c3ccnc(Nc4ccccc4)n3)c2-c2ccccc2)O1 [Example 11b, (4R,6S,E)-6-(2-(3,5-diphenyl-1-(2-(phenylamino)pyrimidin-4-yl)-1H-pyrazol-4-yl)vinyl)-4-hydroxy-tetrahydropyran-2-one]
IC50 [1, 6]: 6 µM
IC50 [3, 7]: 21 µM

O=C(O)C[C@H](O)C[C@H](O)CCc1c(-c2ccccc2)nn(-c2ccnc(Nc3ccccc3)n2)c1-c1ccccc1 [Example 11c, (3R,5R)-7-(3,5-diphenyl-1-(2-(phenylamino)pyrimidin-4-yl)-1H-pyrazol-4-yl)-3,5-dihydroxyheptanoic acid]
IC50 [4]: > 100 nM
IC50 [3, 7]: 18 µM

O=C1C[C@H](O)C[C@@H](CCc2c(-c3ccccc3)nn(-c3ccnc(Nc4ccccc4)n3)c2-c2ccccc2)O1 [Example 11d, (4R,6R)-6-(2-(3,5-diphenyl-1-(2-(phenylamino)pyrimidin-4-yl)-1H-pyrazol-4-yl)ethyl)-4-hydroxy-tetrahydropyran-2-one]
IC50 [1, 6]: 8 µM
IC50 [3, 7]: 11 µM

COc1nccc(-n2nc(C(C)C)c(/C=C/[C@@H](O)C[C@@H](O)CC(=O)O)c2-c2cccc(C(F)(F)F)c2)n1 [Example 11e, (3R,5S,E)-3,5-dihydroxy-7-(3-isopropyl-1-(2-methoxypyrimidin-4-yl)-5-(3-(trifluoromethyl)phenyl)-1H-pyrazol-4-yl)hept-6-enoic acid calcium salt]
IC50 [4]: 2 nM
IC50 [1, 6]: 36 µM
IC50 ([3]; inhibition of LPS-induced TNF-α release from human peripheral blood mononuclear cells by 50%; read-out: IC50 Whole cell): 30 µM

COc1nccc(-n2nc(C(C)C)c(/C=C/[C@@H]3C[C@@H](O)CC(=O)O3)c2-c2cccc(C(F)(F)F)c2)n1 [Example 11f, (4R,6S,E)-4-hydroxy-6-(2-(3-isopropyl-1-(2-methoxypyrimidin-4-yl)-5-(3-(trifluoromethyl)phenyl)-1H-pyrazol-4-yl)vinyl)-tetrahydropyran-2-one]
IC50 [1, 6]: > 100 µM
IC50 [3, 7]: 16 µM

O=C(O)C[C@H](O)C[C@H](O)/C=C/c1cnn(-c2ccnc(Nc3ccccc3)n2)c1-c1cccc(C(F)(F)F)c1 [Example 11g, (3R,5S,E)-3,5-dihydroxy-7-(1-(2-(phenylamino)pyrimidin-4-yl)-5-(3-(trifluoromethyl)phenyl)-1H-pyrazol-4-yl)hept-6-enoic acid calcium salt]
IC50 [4]: > 100 nM
IC50 [1, 6]: 14 µM
IC50 [3, 8]: 52 µM

CC(C)n1c(/C=C/C(O)CC(O)CC(=O)O)c(-c2ccc(F)cc2)c2ccccc21 (centres unmarked) [Fluvastatin sodium]
IC50 [1, 5]: ~34 µM and 34 µM
% Inh. of oxazolone-induced mouse ear swelling ([2]; dose 2 × 0.3 mg): 28%

COc1ccc2c(c1)c(CC(=O)O)c(C)n2C(=O)c1ccc(Cl)cc1 [Indomethacin]
% Inh. of oxazolone-induced mouse ear swelling ([2]; dose 2 × 0.3 mg): 44%

O=C([O-])C[C@H](O)C[C@H](O)/C=C/c1c(C2CC2)nc2ccccc2c1-c1ccc(F)cc1.O=C([O-])C[C@H](O)C[C@H](O)/C=C/c1c(C2CC2)nc2ccccc2c1-c1ccc(F)cc1.[Ca+2] [Pitavastatin calcium]
% Inh. of oxazolone-induced mouse ear swelling ([2]; dose 2 × 0.3 mg): 9%
% Inh. of oxazolone-induced mouse ear swelling ([2]; dose 2 × 2 mg): 60%

CC[C@H](C)C(=O)O[C@H]1C[C@H](O)C=C2C=C[C@H](C)[C@H](CC[C@@H](O)C[C@@H](O)CC(=O)O)[C@H]21 [Pravastatin sodium]
% Inh. of oxazolone-induced mouse ear swelling ([2]; dose 2 × 0.3 mg): 24%

CC(C)c1nc(N(C)S(C)(=O)=O)nc(-c2ccc(F)cc2)c1/C=C/[C@@H](O)C[C@@H](O)CC(=O)O [Rosuvastatin calcium]
IC50 [1, 5]: 92 µM

CC(C)c1nc(N(C)S(C)(=O)=O)nc(-c2ccc(F)cc2)c1/C=C/[C@@H](O)C[C@@H](O)CC(=O)O [Rosuvastatin sodium]
% Inh. of oxazolone-induced mouse ear swelling ([2]; dose 2 × 0.3 mg): 20%

Simvastatin sodium
IC50 [1, 5]: > 100 µM
